Reference: US20240174744A1, “METHODS OF TREATMENT USING PROTEIN BINDERS TO IRHOM2 EPITOPES” (SCIRHOM GMBH, priority 2021, published 2024)

Tested on: PMA-induced release of TNFα from U-937 cells
Assay: ELISA-based TNFα release assay, PMA-stimulated U-937 cells
Assay type: cell-based
Conditions: Homo sapiens, U-937, 1 h, Batimastat 10 μM, PMA 25 ng/ml
Protocol: In contrast to Example 14 and 17, where the inhibitory effects of the antibodies of the present disclosure on LPS-induced release of endogenous TNFα from human THP-1 cells were tested, this analysis was conducted with recombinantly produced murine antibodies of the present disclosure to verify their inhibitory effects on PMA-induced release of endogenous TNFα from human monocytic U-937 cells.
In brief, on day 1, Nunc black MaxiSorp® 96-well plates (Thermo Fisher Scientific, USA) were coated overnight with 100 μl per well of mouse anti-human TNFα capture antibody (provided as part of the DuoSet ELISA kit) at 4 μg/ml TBS at 4° C. On day 2, the capture antibody solution was removed and MaxiSorp® plates were blocked with 300 μl per well of TBS, 1% BSA at room temperature for 1-2 hours. […] Using an infinite M1000 (Tecan Group, Switzerland) microplate reader, the fluorescence of each well was collected at an excitation wavelength of 435 nm and an emission wavelength of 555 nm. […]

Compound: CNC(=O)[C@H](Cc1ccccc1)NC(=O)[C@H](CC(C)C)[C@H](CSc1cccs1)C(=O)NO [Batimastat]
- inhibition at 10 µM (murine (m) and chimeric (ch) antibodies 3 μg/ml): 98.7%
- inhibition at 10 µM (recombinant murine antibodies 1 μg/ml): 100%
